Experimental data: patent publication US20030162765A1, “2-amino-6-(2-substituted-4-phenoxy)-substituted-pyridines” (Pfizer Inc., priority 1997, published 2003)
Where a name gives a salt, the structure may show the parent alone.

SMILES	melting point [°C]
Cc1cc(-c2cccc(N)n2)c(C)cc1OCCN1CCN(CCc2ccccc2)CC1 (as salt: hydrochloride) [Example 111, 6-[4-(2-(4-Phenethylpiperazin-1-yl)-ethoxy)-2,5-dimethyl-phenyl]-pyridin-2-ylamine]	> 220
CCOc1cc(-c2cccc(N)n2)ccc1OCCN(C)C (as salt: hydrochloride) [Example 12, 6-[4-(2-Dimethylamino-ethoxy)-3-ethoxy-phenyl]-pyridin-2-ylamine]	210 to 216
Cc1cc(-c2cccc(N)n2)c(C)cc1OCCN(C)C (as salt: hydrochloride) [Example 110, 6-[4-(2-dimethylamino-ethoxy)-2,5-dimethyl-phenyl]-pyridin-2-ylamine]	205 to 209
COc1cc(-c2cccc(N)n2)ccc1OCCN(C)C (as salt: hydrochloride) [Example 6, 6-[4-(2-Dimethylamino-ethoxy)-3-methoxy-phenyl]-pyridin-2-ylamine]	225 to 228
COc1cc(-c2cccc(N)n2)ccc1OCCN1CCN(CCc2ccccc2)CC1 (as salt: hydrochloride) [Example 9, 6-{3-methoxy-4-[2-(4-phenethyl-piperazin-1-yl)-ethoxy]-phenyl}-pyridin-2-ylamine]	167 to 182
